Assay results taken from ChEMBL document CHEMBL1134304, “Discovery of novel p-arylthio cinnamides as antagonists of leukocyte function-associated antigen-1/intercellular adhesion molecule-1 interaction. 4. Structure-activity relationship of substituents on the benzene ring of the cinnamide” (J Med Chem, 2001).

How the values were obtained:
[1] = biological target: T1, Integrin alpha-L (Homo sapiens, UniProt P20701); experiment: Inhibition of intercellular adhesion molecule-1 (ICAM-1) binding to recombinant LFA-1, range(130-170)
T1 sequence (P20701 whole entry): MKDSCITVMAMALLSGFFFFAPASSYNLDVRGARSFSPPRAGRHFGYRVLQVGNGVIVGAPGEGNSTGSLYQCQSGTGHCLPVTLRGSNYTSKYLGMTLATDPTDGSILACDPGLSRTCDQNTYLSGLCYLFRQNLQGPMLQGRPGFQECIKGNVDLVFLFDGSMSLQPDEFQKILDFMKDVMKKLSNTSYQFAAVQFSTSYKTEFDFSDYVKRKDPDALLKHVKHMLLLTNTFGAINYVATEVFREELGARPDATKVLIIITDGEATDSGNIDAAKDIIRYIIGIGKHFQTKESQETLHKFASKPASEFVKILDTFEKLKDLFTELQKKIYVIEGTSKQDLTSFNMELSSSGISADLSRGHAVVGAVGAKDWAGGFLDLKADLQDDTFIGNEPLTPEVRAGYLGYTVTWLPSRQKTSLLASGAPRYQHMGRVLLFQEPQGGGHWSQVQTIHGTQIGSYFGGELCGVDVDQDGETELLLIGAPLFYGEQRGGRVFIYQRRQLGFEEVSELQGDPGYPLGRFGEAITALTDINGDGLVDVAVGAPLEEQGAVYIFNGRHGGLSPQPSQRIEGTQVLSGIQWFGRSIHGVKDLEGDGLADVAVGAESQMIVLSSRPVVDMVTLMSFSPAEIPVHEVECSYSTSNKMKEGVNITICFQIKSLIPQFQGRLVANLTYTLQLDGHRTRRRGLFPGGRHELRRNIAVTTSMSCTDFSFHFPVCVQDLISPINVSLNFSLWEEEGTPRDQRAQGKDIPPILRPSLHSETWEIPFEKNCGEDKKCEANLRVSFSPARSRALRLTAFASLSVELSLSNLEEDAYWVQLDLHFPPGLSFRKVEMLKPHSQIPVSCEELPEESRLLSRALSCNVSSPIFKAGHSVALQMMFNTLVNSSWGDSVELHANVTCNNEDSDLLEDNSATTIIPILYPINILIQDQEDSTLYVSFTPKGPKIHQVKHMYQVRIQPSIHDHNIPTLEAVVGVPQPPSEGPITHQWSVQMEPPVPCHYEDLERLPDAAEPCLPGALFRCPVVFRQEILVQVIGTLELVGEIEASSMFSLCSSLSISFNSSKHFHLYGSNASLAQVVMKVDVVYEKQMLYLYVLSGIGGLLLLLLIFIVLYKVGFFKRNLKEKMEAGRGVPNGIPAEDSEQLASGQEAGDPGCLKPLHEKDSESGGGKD

[2] = biological target: Intercellular adhesion molecule (ICAM-1), Integrin alpha-L/beta-2 (Homo sapiens, UniProt P05107+P20701); experiment: Inhibition of LFA-1 mediated JY-8 cell adhesion to ICAM-1, range (6-100); type: functional, cell-based
Chain of Intercellular adhesion molecule (ICAM-1), Integrin alpha-L/beta-2 (P05362 whole entry, one chain of several, further chain): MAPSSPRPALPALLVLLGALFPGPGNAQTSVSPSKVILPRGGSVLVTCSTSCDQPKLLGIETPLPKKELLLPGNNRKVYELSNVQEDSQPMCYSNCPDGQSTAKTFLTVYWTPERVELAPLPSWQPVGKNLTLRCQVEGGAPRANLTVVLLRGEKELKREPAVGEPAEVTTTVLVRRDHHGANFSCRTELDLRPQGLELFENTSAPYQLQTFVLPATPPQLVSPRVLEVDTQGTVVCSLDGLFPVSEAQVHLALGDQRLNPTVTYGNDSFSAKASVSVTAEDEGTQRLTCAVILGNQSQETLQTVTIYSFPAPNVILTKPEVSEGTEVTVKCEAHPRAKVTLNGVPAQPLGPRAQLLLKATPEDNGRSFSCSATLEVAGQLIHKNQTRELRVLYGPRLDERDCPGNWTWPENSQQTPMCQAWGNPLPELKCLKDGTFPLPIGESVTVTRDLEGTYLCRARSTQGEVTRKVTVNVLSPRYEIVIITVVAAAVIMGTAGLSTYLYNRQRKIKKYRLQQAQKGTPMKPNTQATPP
Chain of Intercellular adhesion molecule (ICAM-1), Integrin alpha-L/beta-2 (P05107 whole entry, one chain of several): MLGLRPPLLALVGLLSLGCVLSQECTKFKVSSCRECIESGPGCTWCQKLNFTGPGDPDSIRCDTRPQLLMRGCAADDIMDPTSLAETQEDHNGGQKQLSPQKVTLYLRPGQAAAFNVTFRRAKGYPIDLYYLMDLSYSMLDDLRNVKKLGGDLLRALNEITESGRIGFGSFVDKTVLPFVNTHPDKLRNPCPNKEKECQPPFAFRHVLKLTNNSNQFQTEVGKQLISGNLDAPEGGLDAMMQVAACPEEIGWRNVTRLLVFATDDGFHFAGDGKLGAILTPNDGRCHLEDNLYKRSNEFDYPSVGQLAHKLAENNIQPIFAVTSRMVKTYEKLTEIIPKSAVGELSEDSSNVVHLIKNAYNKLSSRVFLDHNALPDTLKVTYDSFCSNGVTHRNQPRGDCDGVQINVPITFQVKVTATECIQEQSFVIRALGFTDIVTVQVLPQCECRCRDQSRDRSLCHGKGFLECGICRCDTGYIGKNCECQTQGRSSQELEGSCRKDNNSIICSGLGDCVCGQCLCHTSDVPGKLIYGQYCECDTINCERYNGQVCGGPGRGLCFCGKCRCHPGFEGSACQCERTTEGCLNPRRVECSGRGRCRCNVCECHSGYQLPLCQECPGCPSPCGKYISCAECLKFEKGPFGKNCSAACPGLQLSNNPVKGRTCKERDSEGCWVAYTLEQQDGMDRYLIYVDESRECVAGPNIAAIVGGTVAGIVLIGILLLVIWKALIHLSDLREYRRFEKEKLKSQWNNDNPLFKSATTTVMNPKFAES

IC50 [1]: 150 nM | IC50 [2]: 40 nM
Compound: COc1ccccc1Sc1ccc(/C=C/C(=O)N2CCOCC2)cc1Cl
